Measurements published in patent US9617286B2, “Fungicide N-[(trisubstitutedsilyl)methyl]-carboxamide derivatives” (BAYER INTELLECTUAL PROPERTY GMBH, priority 2011, dated 2017).

Tests used:
[1] = tested on: Septoria tritici; experiment: In vivo preventive test on Septoria tritici (wheat); settings: preventive spray, 500 ppm of active ingredient, grading 24 days after contamination
How it was run: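 Wheat (Scipion) at the 1-leaf stage was sprayed with compound, then inoculated 24 h later with Septoria tritici spores (500 000 spores/mL). Plants were held 72 h at 18 °C, 100% RH, then 21 days at 90% RH. Efficacy (%) was graded 24 days post-inoculation versus solvent-treated controls.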

[2] = tested on: Alternaria brassicae; experiment: In vivo preventive test on Alternaria brassicae (leaf spot on radish); settings: preventive spray, 500 ppm of active ingredient, grading 6 days after contamination
Protocol: Radish plants (“Pernod Clair” variety), sown in starter cups on a 50/50 peat soil pozzolana substrate and grown at 17° C., are treated at the cotyledon stage by spraying with the active ingredient prepared as described above. Plants, used as controls, are treated with the mixture of acetone/tween/DMSO/water not containing the active material. After 24 hours, the plants are contaminated by spraying the cotyledons with an aqueous suspension of Alternaria brassicae spores (50 000 spores per mL). The spores are collected from a 15-day-old culture. The contaminated radish plants are incubated at 20° C. and at 100% relative humidity. Grading (% of efficacy) is carried out 6 days after the contamination, in comparison with the control plants.

[3] = tested on: Sphaerotheca fuliginea; experiment: In vivo preventive test on Sphaerotheca fuliginea (powdery mildew on cucurbits); settings: gherkin plants, preventive spray, 500 ppm of active ingredient, grading 12 days after contamination
How it was run: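 Gherkin plants at cotyledon stage Z11 were sprayed with compound and inoculated 24 h later with Sphaerotheca fuliginea spores (100 000 spores per mL). Incubation was at about 20 °C and 70–80% relative humidity. Efficacy (%) was graded 12 days post-inoculation against solvent-treated controls.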

[4] = tested on: Pyricularia oryzae; assay type: in vivo; settings: rice, preventive spray, 500 ppm of active ingredient, grading 6 days after contamination
[5] = tested on: Puccinia recondita; experiment: In vivo preventive test on Puccinia recondita (brown rust on wheat); settings: preventive spray, 500 ppm of active ingredient, grading 12 days after contamination
How it was run: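 Wheat (Scipion) at the 1-leaf stage was sprayed with compound and inoculated 24 h later with P. recondita spores (100 000 spores/mL). Plants were held 24 h at 20° C/100% RH, then 10 days at 20° C/70-80% RH. Efficacy (%) was graded 12 days post-inoculation against solvent-treated controls.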

[6] = log P by HPLC on reversed-phase column (C 18), EEC Directive 79/831 Annex V.A8; assay type: physicochemical; settings: 40° C., 0.1% aqueous formic acid and acetonitrile, linear gradient 10% to 90% acetonitrile
How it was run: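 Reversed-phase C18 HPLC at 40° C, 0.1% aqueous formic acid/acetonitrile gradient from 10% to 90% acetonitrile. log P derived from retention times by linear interpolation between unbranched alkan-2-ones (3–16 carbons) of known log P.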

[7] = tested on: Alternaria solani; experiment: In vivo preventive test on Alternaria solani (tomato); settings: preventive spray, 500 ppm of active ingredient, evaluated 7 days after inoculation
Protocol: Solvent: 49 parts by weight of N,N-dimethylformamide Emulsifier: 1 part by weight of alkylaryl polyglycol ether To produce a suitable preparation of active compound, 1 part by weight of active compound is mixed with the stated amounts of solvent and emulsifier, and the concentrate is diluted with water to the desired concentration. To test for preventive activity, young plants are sprayed with the preparation of active compound at the stated rate of application. One day after this treatment, the plants are inoculated with an aqueous spore suspension of Alternaria solani. The plants remain for one day in an incubation cabinet at approximately 22° C. and a relative atmospheric humidity of 100%. Then the plants are placed in an incubation cabinet at approximately 20° C. and a relative atmospheric humidity of 96%.

[8] = tested on: Uromyces appendiculatus; experiment: In vivo preventive test on Uromyces appendiculatus (bean rust); settings: bean plants, preventive spray, 500 ppm of active ingredient, grading 11 days after contamination
Protocol: Bean plants (“Saxa” variety), sown in starter cups on a 50/50 peat soil pozzolana substrate and grown at 24° C., are treated at the 2 leaf stage (9 cm height) by spraying with the active ingredient prepared as described above. Plants, used as controls, are treated with the mixture of acetone/tween/DMSO/water not containing the active material. After 24 hours, the plants are contaminated by spraying the leaves with an aqueous suspension of Uromyces appendiculatus spores (150 000 spores per mL). The spores are collected from infected plants and are suspended in water containing 2.5 mL/L of Tween 80 at 10%. The contaminated bean plants are incubated for 24 hours at 20° C. and at 100% relative humidity, and then for 10 days at 20° C. and at 70-80% relative humidity. Grading (% of efficacy) is carried out 11 days after the contamination, in comparison with the control plants.

[9] = tested on: Pyrenophora teres; experiment: In vivo preventive test on Pyrenophora teres (barley) - 2nd test; settings: 2nd test (acetone/tween/DMSO), 500 ppm of active ingredient, grading 14 days after contamination
Protocol: Barley plants (“Plaisant” variety), sown in starter cups on a 50/50 peat soil pozzolana substrate and grown at 22° C., are treated at the 1 leaf stage (10 cm height) by spraying with the active ingredient prepared as described above. Plants, used as controls, are treated with the mixture of acetone/tween/DMSO/water not containing the active material. After 24 hours, the plants are contaminated by spraying the leaves with an aqueous suspension of Pyrenophora teres spores (12 000 spores per mL). The spores are collected from a 12-day-old culture. The contaminated barley plants are incubated for 48 hours at 20° C. and at 100% relative humidity, and then for 12 days at 20° C. at 70-80% relative humidity. Grading (% of efficacy) is carried out 14 days after the contamination, in comparison with the control plants.

[10] = tested on: Botrytis cinerea; experiment: In vivo preventive test on Botrytis cinerea (grey mould) - 2nd test; settings: gherkin plants, 2nd test (acetone/tween/DMSO), 500 ppm of active ingredient, grading 4 to 5 days after contamination
Protocol: Gherkin plants (“Vert petit de Paris” variety), sown in starter cups on a 50/50 peat soil pozzolana substrate and grown at 24° C., are treated at the Z11 cotyledon stage by spraying with the active ingredient prepared as described above. Plants, used as controls, are treated with the mixture of acetone/tween/DMSO/water not containing the active material. After 24 hours, the plants are contaminated by spraying the cotyledons with an aqueous suspension of cryopreserved Botrytis cinerea spores (50 000 spores per mL). The spores are suspended in a nutrient solution composed of 10 g/L of PDB, 50 g/L of D-Fructose, 2 g/L of NH4NO3 and 1 g/L of KH2PO4. The contaminated gherkin plants are incubated at 17° C. and at 90% relative humidity. Grading (% of efficacy) is carried out 4 to 5 days after the contamination, in comparison with the control plants.

[11] = tested on: Pyrenophora teres; experiment: In vivo preventive test on Pyrenophora teres (barley); settings: preventive spray (DMF/alkylaryl polyglycol ether), 500 ppm of active ingredient, evaluated 7-9 days after inoculation
How it was run: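 Young barley plants sprayed preventively with compound in DMF/emulsifier diluted in water, then inoculated one day later with aqueous P. teres spore suspension. Held 48 h at 22 °C and 100% relative humidity, then greenhouse at about 20 °C and 80% humidity.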

Row | Compound | Efficacy [1] | Efficacy [2] | Efficacy [3] | Efficacy [4] | Efficacy [5] | logP [6] | Efficacy [7] | Efficacy [8] | Efficacy [9] | Efficacy [10] | Efficacy [11] | chromatographic logP [6]
1 | C[Si](C)(CN(C(=O)c1cccnc1C(F)F)C1CC1)c1ccc(F)cc1Cl [Example 45] | 80% | 90% | 83% | 83% | 75% | 3.96 | – | – | – | – | – | –
2 | C[Si](C)(CNC(=O)c1cccnc1C(F)F)c1ccccc1 [Example 1, 2-(difluoromethyl)-N-{[dimethyl(phenyl)silyl]methyl}nicotinamide] | 100% | – | 98% | – | 88% | – | 95% | 100% | 79% | 89% | 90% | 2.71
3 | C[Si](C)(CN(C(=O)c1cccnc1Cl)C1CC1)c1ccc(F)cc1Cl [Example 46] | – | – | – | 92% | – | 4.06 | – | – | – | – | – | –
